Assay results: patent US20230365602A1, “COMPOUND FOR USE IN THE TREATMENT OF PROTOZOAL DISEASES AND PROCESS FOR PRODUCTION OF SAID COMPOUND” (QUADREL S.R.L., priority 2020, published 2023)
“Also recorded” adds a separate entry of the source. Like-named read-outs stand apart in the source and are kept apart here.

Experiments:
CYP3A4 = CYP3A4 (Homo sapiens, UniProt P08684); assay: Early toxicity: CYP3A4 inhibition; format: in vitro ADME; details: Table 4a
hERG channel = hERG channel (Homo sapiens, UniProt Q12809); assay: Early toxicity: hERG inhibition
Sequence of hERG channel (Q12809 whole entry): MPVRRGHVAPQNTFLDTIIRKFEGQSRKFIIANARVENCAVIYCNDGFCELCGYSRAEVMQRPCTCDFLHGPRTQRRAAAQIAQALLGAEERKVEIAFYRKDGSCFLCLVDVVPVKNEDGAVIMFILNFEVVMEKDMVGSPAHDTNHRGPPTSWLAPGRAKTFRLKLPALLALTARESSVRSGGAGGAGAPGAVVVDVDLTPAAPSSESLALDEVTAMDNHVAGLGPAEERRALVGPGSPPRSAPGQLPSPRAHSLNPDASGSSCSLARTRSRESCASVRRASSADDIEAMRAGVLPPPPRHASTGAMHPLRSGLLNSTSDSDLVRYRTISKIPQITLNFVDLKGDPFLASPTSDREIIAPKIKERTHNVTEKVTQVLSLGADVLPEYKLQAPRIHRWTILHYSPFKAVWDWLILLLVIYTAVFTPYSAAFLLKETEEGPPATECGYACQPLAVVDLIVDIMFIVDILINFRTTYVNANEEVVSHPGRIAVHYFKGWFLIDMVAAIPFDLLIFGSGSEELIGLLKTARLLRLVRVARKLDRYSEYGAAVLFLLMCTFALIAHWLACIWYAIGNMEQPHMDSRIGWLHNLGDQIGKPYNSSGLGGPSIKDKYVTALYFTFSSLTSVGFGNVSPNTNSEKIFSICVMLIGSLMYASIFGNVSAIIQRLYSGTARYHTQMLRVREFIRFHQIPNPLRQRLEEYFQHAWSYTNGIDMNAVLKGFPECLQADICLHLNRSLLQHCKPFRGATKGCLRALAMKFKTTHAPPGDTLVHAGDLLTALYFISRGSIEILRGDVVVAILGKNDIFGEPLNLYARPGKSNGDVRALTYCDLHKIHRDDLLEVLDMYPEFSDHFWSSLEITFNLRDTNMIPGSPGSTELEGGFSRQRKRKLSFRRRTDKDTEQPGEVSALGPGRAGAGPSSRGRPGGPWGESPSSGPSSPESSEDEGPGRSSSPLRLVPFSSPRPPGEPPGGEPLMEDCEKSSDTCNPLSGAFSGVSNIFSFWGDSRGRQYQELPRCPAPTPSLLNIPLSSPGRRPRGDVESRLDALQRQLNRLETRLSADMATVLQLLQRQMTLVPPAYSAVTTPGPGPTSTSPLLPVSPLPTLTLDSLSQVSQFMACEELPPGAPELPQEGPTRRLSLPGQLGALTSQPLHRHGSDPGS

[1] = Snapshot pharmacokinetics in plasma after oral gavage; format: in vivo, mice; details: mouse, plasma, po, healthy BALB/c mice, 20 mg/kg gavage, Table 13
Protocol: Pharmacology of 5-cyclopentadecylpentyl (2-(trimethylammonio)ethyl) phosphate (19) in mice.
Blood samples were collected from the tail vein at 0, 0.5, 0.75, 1, 3, 24 and 72 hours into heparinized tubes. Moreover, biodistribution of the molecule, 72h after administration, was determined in several organs of the treated mice, namely brain, liver, spleen, kidney, heart and bone marrow. […] J Chromatogr B, 865: 55-62) by liquid chromatography mass spectrometry (LC-MS/MS).

mitochondria = assay: Early toxicity: mitochondrial toxicity; format: cell-based
[2] = tested on: PMA-differentiated THP-1 cells; assay: Toxicity MTT assay in PMA-differentiated THP-1 cells; format: cell-based, human; details: Table 2; read-out: Toxicity CC50 ± SD or NOAEL
Source text: (§1) The in vitro antiparasitic activity against L. infantum (MHOM/MA/67/ITMAP-263) and the toxicity against THP-1 macrophages is presented in Table 1.

[3] = as above; format: cell-based, human; details: human, PMA-differentiated THP-1 cells (macrophages)
Source text: as §1

CYP2C9 = CYP2C9 (Homo sapiens, UniProt P11712); assay: Early toxicity: CYP2C9 inhibition; format: in vitro ADME; details: human, mean ± SD, Table 4a
Sequence of CYP2C9 (P11712 whole entry): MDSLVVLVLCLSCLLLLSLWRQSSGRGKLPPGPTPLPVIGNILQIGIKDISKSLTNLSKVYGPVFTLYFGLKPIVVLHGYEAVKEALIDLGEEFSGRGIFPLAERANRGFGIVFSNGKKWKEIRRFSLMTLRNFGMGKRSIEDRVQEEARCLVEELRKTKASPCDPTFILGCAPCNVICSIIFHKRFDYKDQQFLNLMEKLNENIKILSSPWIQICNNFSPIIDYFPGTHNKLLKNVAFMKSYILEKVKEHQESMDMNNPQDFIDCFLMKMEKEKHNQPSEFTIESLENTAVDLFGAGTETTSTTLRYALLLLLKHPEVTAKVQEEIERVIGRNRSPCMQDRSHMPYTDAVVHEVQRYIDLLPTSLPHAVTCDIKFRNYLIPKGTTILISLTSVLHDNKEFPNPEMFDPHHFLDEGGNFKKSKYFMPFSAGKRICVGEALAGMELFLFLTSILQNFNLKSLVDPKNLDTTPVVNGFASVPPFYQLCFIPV

[4] = tested on: T. b. brucei L427 WT Blood-Stream Form; assay: Anti-parasitic activity against T. b. brucei blood-stream form (resazurin 72 h assay); format: cell-based; details: Table 2
CYP2D6 = CYP2D6 (Homo sapiens, UniProt P10635); assay: Early toxicity: CYP2D6 inhibition; format: in vitro ADME; details: Table 4a
Sequence of CYP2D6 (P10635 whole entry): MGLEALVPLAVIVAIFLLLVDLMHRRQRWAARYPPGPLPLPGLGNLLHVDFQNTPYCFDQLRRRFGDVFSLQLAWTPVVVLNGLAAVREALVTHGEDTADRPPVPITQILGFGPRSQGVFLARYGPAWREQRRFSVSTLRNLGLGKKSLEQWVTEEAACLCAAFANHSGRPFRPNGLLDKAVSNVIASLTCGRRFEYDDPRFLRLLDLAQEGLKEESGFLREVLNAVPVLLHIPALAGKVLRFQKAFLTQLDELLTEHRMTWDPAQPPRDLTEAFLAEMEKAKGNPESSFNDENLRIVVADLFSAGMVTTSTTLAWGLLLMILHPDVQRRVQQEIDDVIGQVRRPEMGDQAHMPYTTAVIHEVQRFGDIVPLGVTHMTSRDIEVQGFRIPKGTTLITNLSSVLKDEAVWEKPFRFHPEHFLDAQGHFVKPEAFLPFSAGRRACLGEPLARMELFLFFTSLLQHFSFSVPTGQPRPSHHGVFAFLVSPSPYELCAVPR

CYP1A2 = target: T1, CYP1A2 (Homo sapiens, UniProt P05177); assay: Early toxicity: CYP1A2 inhibition; format: in vitro ADME; details: human, mean ± SD, Table 4a
T1 sequence (P05177 1-516): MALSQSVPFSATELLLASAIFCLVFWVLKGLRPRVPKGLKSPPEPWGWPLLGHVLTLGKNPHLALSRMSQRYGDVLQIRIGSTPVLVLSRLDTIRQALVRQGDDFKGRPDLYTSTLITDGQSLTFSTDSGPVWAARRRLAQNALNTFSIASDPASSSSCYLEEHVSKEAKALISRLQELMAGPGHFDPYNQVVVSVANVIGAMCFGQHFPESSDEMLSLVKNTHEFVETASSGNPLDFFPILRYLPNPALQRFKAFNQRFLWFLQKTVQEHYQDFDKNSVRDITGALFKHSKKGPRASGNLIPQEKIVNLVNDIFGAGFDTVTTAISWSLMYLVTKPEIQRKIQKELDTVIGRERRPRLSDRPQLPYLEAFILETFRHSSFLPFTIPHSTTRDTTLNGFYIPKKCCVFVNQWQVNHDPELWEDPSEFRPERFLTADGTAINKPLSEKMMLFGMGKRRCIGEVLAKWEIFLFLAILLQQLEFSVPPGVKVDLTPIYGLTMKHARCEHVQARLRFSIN

A549 = assay: Early toxicity: A549 cell growth; format: cell-based; details: 10 μM; 100% = not cytotoxic, 0% = cytostatic, −100% = cytotoxic
CYP2C19 = CYP2C19 (Homo sapiens, UniProt P33261); assay: Early toxicity: CYP2C19 inhibition; format: in vitro ADME; details: Table 4a
Sequence of CYP2C19 (P33261 whole entry): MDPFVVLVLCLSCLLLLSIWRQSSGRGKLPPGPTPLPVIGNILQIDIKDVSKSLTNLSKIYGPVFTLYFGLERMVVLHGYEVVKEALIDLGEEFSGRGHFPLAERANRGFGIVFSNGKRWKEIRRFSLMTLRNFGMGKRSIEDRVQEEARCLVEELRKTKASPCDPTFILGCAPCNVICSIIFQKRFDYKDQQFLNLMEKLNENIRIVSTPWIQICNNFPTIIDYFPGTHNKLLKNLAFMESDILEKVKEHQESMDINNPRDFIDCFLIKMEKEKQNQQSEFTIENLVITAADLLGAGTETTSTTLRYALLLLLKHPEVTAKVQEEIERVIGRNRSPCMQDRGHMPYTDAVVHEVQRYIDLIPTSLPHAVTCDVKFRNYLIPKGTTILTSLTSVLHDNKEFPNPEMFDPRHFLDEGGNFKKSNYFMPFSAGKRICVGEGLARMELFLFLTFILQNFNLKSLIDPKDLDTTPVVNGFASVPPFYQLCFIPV

[5] = tested on: L. infantum axenic amastigotes expressing luciferase; assay: In vivo model of infection with L. infantum axenic amastigotes expressing luciferase; details: ten consecutive oral treatments with 10 mg/kg, 2 weeks after last treatment
Protocol: FIG. 4 illustrates the in vivo activity of compounds 18 and 19 in a model of infection with L. infantum axenic amastigotes expressing luciferase (10 consecutive treatments with 10 mg/kg of each compound, evaluated by limiting dilution assay 2 weeks after the last treatment).
In vivo activity of compounds 18 and 19 (ten consecutive oral treatments with 10 mg/kg of each compound, followed by a break of 2 weeks after last treatment), was studied in a model of infection with axenic amastigotes expressing luciferase, essentially as described in (Mendes Costa D. et al, J. Sci Rep. 2019 Dec. 12; 9(1):18989; Tavares J. et al., Methods Mol Biol. 2019; 1971:289-301). (FIG. 4).

[6] = tested on: L. infantum (MHOM/MA/67/ITMAP-263) intracellular amastigotes; assay: Anti-parasitic activity against L. infantum intracellular amastigotes (infection with axenic amastigotes luciferase positive); format: cell-based; details: Table 1

Sequence of CYP3A4 (P08684 whole entry): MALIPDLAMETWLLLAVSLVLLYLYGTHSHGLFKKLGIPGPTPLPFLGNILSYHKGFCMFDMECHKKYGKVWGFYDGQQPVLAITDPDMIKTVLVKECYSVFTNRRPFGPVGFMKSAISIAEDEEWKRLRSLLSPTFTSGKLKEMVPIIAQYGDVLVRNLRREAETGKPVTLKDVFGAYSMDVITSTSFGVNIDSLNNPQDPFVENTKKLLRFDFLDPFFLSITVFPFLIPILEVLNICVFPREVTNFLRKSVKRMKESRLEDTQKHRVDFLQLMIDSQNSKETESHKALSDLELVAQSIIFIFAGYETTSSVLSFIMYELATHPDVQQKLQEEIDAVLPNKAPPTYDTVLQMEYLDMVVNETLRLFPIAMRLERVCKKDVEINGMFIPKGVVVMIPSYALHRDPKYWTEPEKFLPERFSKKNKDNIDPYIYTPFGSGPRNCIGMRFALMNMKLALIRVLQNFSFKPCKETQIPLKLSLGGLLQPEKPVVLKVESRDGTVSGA

## C[N+](C)(C)CCOP(=O)([O-])OCCCCC1CCCCCCCCCCCCCC1 [Compound 18, 4-cyclopentadecylbutyl (2-(trimethylammonio)ethyl) phosphate]
CYP3A4
  CYP3A4 interaction: interact
CYP3A4; human, 10 μM, mean ± SD, read-out: % inhibition CYP3A4
  inhibition at 10 µM: 38.1 ± 2.67%
hERG channel; Table 4b
  Flag for Interference, hERG: (no)
hERG channel; human
  inhibition at 10 µM: 34.8 ± 14%
[1]; read-out: AUC (0-∞)
  AUC(0-inf): 262 µg·h/mL
[1]; read-out: AUC (0-∞) (μM h/mL)
  AUC(0-inf): 586 µM·h
[1]; read-out: Cmax
  Cmax: 20.3 µM
[1]; read-out: Cmax (μg/mL)
  Cmax: 9.1 µg/mL
[1]; read-out: tmax
  Tmax: 5 h
[1]; read-out: t½ (converted)
  half-life: 978 min
mitochondria; 10 μM, 100% mitotoxic, 0% not mitotoxic
  % mitochondrial toxicity: 109.49 ± 9.62%
mitochondria; Table 4b
  mitochondrial toxicity: exhibit mitochondrial toxicity
[2]
  CC50: > 100 µM
[3]; THP-1 macrophages, Table 1, read-out: Toxicity CC50 ± SD or NOAEL
  CC50: > 100 µM
[3]; Table 4b, read-out: Cytotoxicity THP-1 (IC50)
  IC50: > 100 µM
CYP2C9
  inhibition at 10 µM: 5.66 ± 5.52%
[4]
  activity against T. b. brucei blood-stream form: unexpectedly high activity in the low micromolar range
[4]; Trypanosoma brucei, 10 μM, read-out: Single Dose Assay 10 μM Mean Inhibitory Activity (%) ± SD
  inhibition at 10 µM: 91 ± 12%
[4]; Trypanosoma brucei, resazurin 72 h, read-out: Dose Response Curves IC50 ± SD
  IC50: 7.44 ± 0.65 µM
[4]; toxicity / T. b. brucei IC50
  Selectivity Index CC50/IC50 or NOAEL/IC50: >13
CYP2D6; 10 μM
  CYP2D6 interaction / inhibition: interact; also recorded: significant inhibition
CYP2D6; human, mean ± SD
  inhibition at 10 µM: 64.5 ± 2.92%
CYP1A2
  inhibition at 10 µM: 14 ± 1.17%
A549
  % cell growth A549: 132.80 ± 8.98%
CYP2C19; 10 μM
  CYP2C19 interaction / inhibition: interact; also recorded: significant inhibition
CYP2C19; human, mean ± SD
  inhibition at 10 µM: 33.3 ± 4.67%
[5]
  parasitic burden in the spleen, liver or bone marrow: not effective
[6]; Leishmania infantum, 10 μM, read-out: Single Dose Assay 10 μM Mean Inhibitory Activity (%) ± SD
  inhibition at 10 µM: 97 ± 2%
[6]; Leishmania infantum, read-out: Dose Response Curves IC50 ± SD
  IC50: 600 ± 300 nM
[6]; THP-1 toxicity / L. infantum IC50
  Selectivity Index CC50/IC50 or NOAEL/IC50: >166
